{"source": "patent US11738099B2", "about": "“Molecular probes and methods of use” (CASE WESTERN RESERVE UNIVERSITY, priority 2014, dated 2023)", "key": {"[1]": {"test_system": "LNCaP prostate tumor xenografts", "test": "T1-weighted MRI at 1 Tesla, LNCaP tumors (Example 3)", "format": "in vivo, mouse", "details": "0.1 mmol/kg i.v., up to 30 min", "method": "(§1) Male athymic nude mice were purchased from Case Comprehensive Cancer Center (Cleveland, Ohio, USA) and housed in the Animal Core Facility at Case Western Reserve University. All animal experiments were performed in accordance with the animal protocol approved by the CWRU Institutional Animal Care and Use Committee. Athymic nude male mice were subcutaneously injected with 100 μL cell suspension (4×10^7 cells/mL) in matrigel matrix (Corning Bioscience, Corning, N.Y.) to initiate tumors. Mice with tumors of 5-8 mm in diameter were used for imaging studies.\nMR images of tumor bearing mice were acquired on an Aspect M3 small animal MRI scanner (1 Tesla). Mice were placed on a holder with the temperature maintained at 37° C., with isoflurane/oxygen mixture supplied to the mice through a nose cone. A thin catheter filled with PBS was connected to a tail vein of the mice. After mice were placed in the coil, a pilot scan was performed to adjust mice to the proper location in the coil. […] Images were exported into DICOM data, which were then processed and analyzed using Matlab (Natick, Mass., USA). The contrast to-noise ratio of tumors in the images were calculated as the difference between tumor mean intensity minus muscle mean intensity, divided by the noise."}, "[2]": {"test": "r1 relaxivity by T1 mapping in PC3 tumor lysates", "format": "physicochemical"}, "[3]": {"test": "Relaxivity at 1.5T in water, 37° C.", "format": "physicochemical", "details": "listed as Gd(HP-DO3A)", "method": "Relaxivity is an important parameter for an MR contrast agent. It reflects how the relaxation rate of the surrounding water proton changes as a function of concentration, and it is directly associated with the agent's contrast enhancing capability during imaging. The relaxivity of the 4 contrast agents was tested at 37° C. in water and compared to Gd(HP-DO3A), Gd-DOTA and ZD2-Gd(HP-DO3A) (FIG. 26). […] Compared to Gd(HP-DO3A), Gd-DOTA, the size increase of the targeted contrast agents due to the peptides and PEG spacer could result in an increase of τR,^[42, 43] thus leading to higher relaxivities."}, "[4]": {"test_system": "PC-3 human prostate cancer xenograft", "test": "MRI of PC-3 xenograft (Example 2)", "format": "in vivo, mouse", "details": "0.1 mmol-Gd/kg intravenous", "source_text": "The same contrast agent also works for prostate cancer imaging. We then tested the effectiveness of targeting EDB-FN with the contrast agent for prostate cancer MRI in male nude mice bearing primary PC-3 human prostate cancer xenograft."}, "[5]": {"test_system": "PC3 prostate tumor xenografts", "test": "T1-weighted MRI at 1 Tesla, PC3 tumors (Example 3)", "format": "in vivo, mouse", "details": "0.1 mmol/kg i.v., up to 30 min, 1 Tesla", "method": "as §1\nMR images of tumor bearing mice were acquired on an Aspect M3 small animal MRI scanner (1 Tesla). Mice were placed on a holder with the temperature maintained at 37° C., with isoflurane/oxygen mixture supplied to the mice through a nose cone. A thin catheter filled with PBS was connected to a tail vein of the mice. After mice were placed in the coil, a pilot scan was performed to adjust mice to the proper location in the coil. An axial T1 weighted sequence (TR=500 ms; TE=9 ms; Flip angle=90°; Field of view=3 cm×3 cm; Matrix size=128×128×8; slice thickness=2 mm; interslice distance=1 mm) was then used to acquire the images of the tumors before and 10 min, 20 min and 30 min after contrast injection. Images were exported into DICOM data, which were then processed and analyzed using Matlab (Natick, Mass., USA). The contrast to-noise ratio of tumors in the images were calculated as the difference between tumor mean intensity minus muscle mean intensity, divided by the noise."}, "[6]": {"test_system": "PC3 prostate tumor xenografts", "test": "In vivo T1-weighted MRI at 7T, PC3 tumors", "design": "species or system mouse", "method": "(§2) All MRI experiments were performed on a horizontal 7T Bruker scanner (Bruker Biospin Co., Billerica, Mass.). Imaging experiments were performed when the tumor size reached 5-8 mm in diameter. ZD2-Gd(HP-DO3A) was administered intravenously at the dose of 0.1 mmol/kg after acquiring pre-contrast images. Post-contrast images were obtained at 10 min interval up to 30 min. The axial slices of mouse at the tumor location were acquired using T1-weighted spin echo sequence with the following parameters: field of view (FOV): 3 cm; slice thickness: 1.2 mm; interslice distance: 1.2 mm; TR: 500 ms, TE: 8.1 ms; flip angle: 90°; average: 2; matrix size: 128×128. Contrast-to-noise ratio (CNR) at each time point was calculated by subtraction of the average signal intensity in the tumor and muscle, divided by the standard deviation of image noise. ProHance® (gadoteridol) was used as a control in the imaging experiments."}, "[7]": {"test_system": "LNCaP prostate tumor xenografts", "test": "In vivo T1-weighted MRI at 7T, LNCaP tumors", "design": "species or system mouse", "method": "as §2"}, "PC3 tumors": {"test_system": "PC3 tumors", "test": "In vivo MRI at 1.0 Tesla, PC3 tumor-bearing mice (Example 5)", "design": "species or system mouse", "method": "All MRI experiments were performed on an Aspect M3 compact MRI scanner (1.0 Telsa, Aspect Imaging. Israel). Imaging experiments were performed when the tumor size reached 5-8 mm in diameter. Each contrast agent was administered intravenously at a dose of 0.1 mmol/kg Gd^3+ after acquiring pre-contrast images. ProHance® (gadoteridol) was used as a control in the imaging experiments. Post-contrast images were obtained at 10 min intervals up to 30 min. Axial slices of the mouse at the tumor location were acquired using a T1-weighted spin echo sequence with the following parameters: TR=500 ms, TE=8.144 ms, slice thickness=1 mm, inter-slice gap=0.1 mm, field of view (FOV)=3 cm×3 cm. The total imaging time is 216 seconds. Contrast-to-noise ratio (CNR) at each time point was calculated by measuring the ratios of signal intensities in manually drawn regions of interest (ROIs) in tumor and muscle, and then normalizing to image noise. A 3D FLASH gradient echo sequence was used for whole-body coronal imaging. Imaging parameters were TR=17.362 ms, TE=6 ms, flip angle=15°, slice thickness=1.5 mm, FOV=[…]. The total imaging time is 226 seconds. Each of the 16 slices was acquired immediately after the acquisitions with the T1-weighted spin echo sequence."}, "EDB fragment": {"molecular_target": "EDB fragment (Homo sapiens, UniProt P02751)", "sequence (P02751 1271-1359 limits assumed)": "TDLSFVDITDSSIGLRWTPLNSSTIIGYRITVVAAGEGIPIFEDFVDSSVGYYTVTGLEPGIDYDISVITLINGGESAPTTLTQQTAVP", "test": "Peptide ELISA of HRP-conjugated peptides on coated EDB", "format": "binding", "details": "HRP conjugates", "method": "A linear version of ZD2 (CTVRTSADA) SEQ ID NO: 42 was synthesized so that sulfhydryl group on cysteine could be used for conjugation with maleimide-activated […] (Sigma-Aldrich). Conjugation was carried out as instructed in the manual. The product of conjugation, ZD2-HRP, was used for peptide ELISA assay after coating a 96-well plate with purified EDB. 0.5% BSA in PBS was used to block non-specific binding for later steps. 0.39 μM to 50 μM of ZD2-HRP was incubated with coated EDB for an hour followed by extensive washing with TBST (0.1%). ABTS substrate was added subsequently and allowed to react for 30 min before the absorbance of solution in each well were measured at 415 nm. Non-coated wells added with ABTS were used as blank.\nCyclic ZD2 peptide (CTVRTSADC) (SEQ ID NO: 10) was synthesized using standard solid phase peptide chemistry and was characterized by MALDI-TOF mass spectrometry (FIG. 1C). The peptide was then labeled with a fluorescence chromophore cyanine 5 (Cy5) through a short PEG linker (NH2—(CH2CH2O)—CH2CH2COOH) to give a peptide fluorescence probe ZD2-Cy5. The peptide was also conjugated to peroxidase (ZD2-HRP) and the binding affinity of the peptide to EDB fragment was determined using peptide ELISA assay.\n(§3) Similarly, CERAK-HRP is synthesized as a control."}, "EDA": {"molecular_target": "EDA (Homo sapiens, UniProt P02751)", "sequence (P02751 1727-1814 limits assumed)": "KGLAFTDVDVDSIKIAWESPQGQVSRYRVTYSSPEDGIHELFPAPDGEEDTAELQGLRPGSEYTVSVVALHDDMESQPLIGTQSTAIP", "test": "ELISA of l-ZD2-HRP on EDA", "format": "binding", "source_text": "as §3"}, "4T1 metastatic tumors": {"test_system": "4T1 metastatic tumors", "test": "Fluorescence detection of micrometastasis, breast cancer metastatic tumor model", "format": "in vivo, mouse", "details": "three hours after 10 nmol injection", "method": "In order to construct a metastatic tumor model, 0.2×10^6 4T1 tumor cells undergone 5 days of TGFβ induction were injected through left ventricle of heart, resulting in the spread of tumor cells primarily in brain, lung, liver, lymph node, adrenal gland, chest, and bone marrow. Bioluminescent images of the mice at two weeks were used to monitor the growth of tumors. To assess the targeting capacity of l-ZD2-Cy5, brain and lung were harvested from the mice three hours after 10 nmol l-ZD2-Cy5 were injected. […] Normal brain and lung harvested from normal mice injected with l-ZD2-Cy5 were used as negative controls. Examination of bigger metastatic tumors in lymph nodes and adrenal gland, as shown in FIG. 8B further backed up the targeting efficiency of l-ZD2-Cy5."}, "TGFβ induced 4T1 cells": {"test_system": "TGFβ induced 4T1 cells", "test": "Binding of Cy5 probes to TGFβ induced 4T1 cells in vitro", "format": "cell-based", "method": "As tumor cells produce EDB-FN to promote its migration, we further validated if Cy5 labeled l-ZD2 (l-ZD2-Cy5) can bind to TGFβ induced 4T1 cells in vitro. […] To explain this, we hypothesize that in this form of cell culture, no clot formation can take action to provide binding sites for CREKA-Cy5. To validate our hypothesis, we further produced a 3D culture system that mimics the “soil” of metastatic tumor. In the 3D culture system, 4T1 cells were cultured in a microenvironment containing TGFβ, collagen, and fibrin. […] In overall, these evidences point to the conclusion that the use of EDB-FN for targeting micrometastasis may be advantageous compared with Fibronectin-Fibrin complexes in that EDB-FN appears earlier than Fibronectin-Fibrin in the pre-metastatic niche."}, "[8]": {"details": "0.1 mmol/kg i.v., up to 30 min, 7T"}}, "note": "Where no end group is shown, it is not given here."}
{"molecule": "CC(O)CN1CCN(CC(=O)[O-])CCN(CC(=O)[O-])CCN(CC(=O)[O-])CC1.[Gd+3]", "note": "(centres unmarked) [ProHance, gadoteridol, reference compound]", "values": [{"measurement": "signal enhancement in LNCaP tumors", "setting": "[1]", "value": "modest contrast enhancement"}, {"measurement": "r1 relaxivity", "setting": "[2]", "value": 3.17, "unit": "mM⁻¹ s⁻¹"}, {"measurement": "r1", "setting": "[3]", "value": 2.9, "unit": "mM⁻¹ s⁻¹"}, {"measurement": "tumor contrast enhancement", "setting": "[4]", "value": "little contrast enhancement"}, {"measurement": "signal enhancement in PC3 tumors", "setting": "[5]", "value": "modest contrast enhancement"}, {"measurement": "signal enhancement in PC3 tumors", "setting": "[6]; [8]", "value": "modest contrast enhancement"}, {"measurement": "CNR in PC3 tumors", "setting": "[6]; 10-30 min post-injection", "value": "7˜11"}, {"measurement": "signal enhancement in LNCaP tumors", "setting": "[7]; [8]", "value": "modest contrast enhancement"}, {"measurement": "CNR in LNCaP tumors", "setting": "[7]; 10-30 min post-injection", "value": "7˜10"}, {"measurement": "tumor signal enhancement, T1-weighted spin-echo", "setting": "PC3 tumors; 0.1 mmol/kg i.v., at 10 minutes, remained at least 30 min", "value": "modest contrast enhancement"}, {"measurement": "time of peak CNR in PC3 tumors", "setting": "PC3 tumors; Gd-DOTA conjugates and ProHance, 0.1 mmol/kg", "value": 10, "unit": "min"}, {"measurement": "CNR in PC3 tumors compared to the peptide targeted contrast agents", "setting": "PC3 tumors; especially at 20 and 30 min", "value": "lower CNR"}]}
{"molecule": "l-ZD2-HRP: NH2-TVRTSADC-COOH conjugated via cysteine thiol to maleimide activated horseradish peroxidase", "values": [{"measurement": "binding to EDB protein", "setting": "EDB fragment", "value": "comparable to cyclic ZD2 with a slight increase in affinity"}, {"measurement": "binding to EDA", "setting": "EDA", "value": "No binding"}]}
{"molecule": "l-ZD2-Cy5: Cy5 labeled l-ZD2 (TVRTSAD; also: Cy5 labeled, site not given here)", "values": [{"measurement": "binding to micrometastases on brain and lung", "setting": "4T1 metastatic tumors", "value": "clearly outlined the micrometastases"}, {"measurement": "binding to induced 4T1 cells", "setting": "TGFβ induced 4T1 cells; cell culture", "value": "bound to induced 4T1 cells within 3 hours"}, {"measurement": "binding in 3D culture of 4T1 cells", "setting": "TGFβ induced 4T1 cells; microenvironment containing TGFβ, collagen, and fibrin", "value": "accumulated in the cell periphery starting from day 1"}]}
